Experimental data taken from patent US9066516B2, “Uses of thaxtomin and thaxtomin compositions as herbicides” (priority 2008, dated 2015).

What was measured:
barnyard grass [1] = experiment: Post-emergent MBI-005 + Propanil on barnyard grass (Example 20); format: in vivo; details: 14 days
Experimental: Negative controls were sprayed with water. Pots were randomly placed in a growth room at 25° C. and 50% RH, and watered as necessary. Treatments were replicated three times and evaluated at 7 and 14 days for visual % damage, with 0% indicating no damage and 100% indicating plant death.
Synergy was calculated as the ratio of observed (E) to expected (E/Ee) percent control using Colby's formula.

[2] = test system: annual grasses and broadleaves, some perennials; experiment: Pre-emergence spectrum of MBI-005, overall (Example 12); format: in vivo; details: some perennials (Table 12)
Experimental: (§1) To further describe the spectrum of pre-emergence activity, tests were conducted in laboratory and field conditions. In laboratory testing, 35 seeds were placed on a ring of blotter paper inside a 3 cm petri dish and supplied with 4 ml of MBI-005 (≦0.1 mg MBI-005/ml). Water was used as a negative control and oryzalin applied as a positive control. Petri dishes were randomly placed in a growth room at 25° C. and 50% RH. Treatments were replicated three times and germinated seeds were counted 7 and 14 days after application; water was added as necessary to maintain moisture levels inside each petri dish.
(§2) In field testing, field soil containing weed seeds were treated with 38.2 L MBI-005/ha at a spray volume of 280 L/ha using a CO2 sprayer with flat fan nozzles. Treatments, including water as the negative control and Gallery as the positive control, were replicated four times and applied twice at a four week interval. Treatments were evaluated visually as % cover and above-ground fresh weights per container were taken.

[3] = in vivo; cited from earlier work
[4] = test system: Mustard (Brassica juncea); experiment: Post-emergence test of MBI-005, lab (Example 13); format: in vivo
Experimental: (§3) To further describe the spectrum of post-emergence activity, tests were conducted in laboratory and field conditions. For laboratory testing, 3-10 plants (depending on the species) at the 1-2 leaf stage plants in 2.5 cm square pots containing Sunshine Mix No. 2 planting media were sprayed at 1 mg MBI-005/mL at a rate of 40 gal/A using a cabinet track sprayer. Negative controls were sprayed with water and positive controls with glufosinate. Pots were randomly placed in a growth room at 25° C. and 50% RH, and watered as necessary. Treatments were replicated five times and evaluated at 7 and 14 days for visual % damage, with 0% indicating no damage and 100% indicating plant death.

[5] = test system: Redstem filaree (Erodium cicutarium); experiment: Post-emergence test of MBI-005, lab (Example 13); format: in vivo
Experimental: as §3

[6] = test system: Lambsquarters (Chenopodium album); experiment: Post-emergence test of MBI-005, lab (Example 13); format: in vivo
Experimental: as §3

[7] = test system: Dandelion (Taraxacum oficinale); experiment: Post-emergence test of MBI-005, lab (Example 13); format: in vivo
Experimental: as §3

[8] = test system: Mallow (Malva parviflora); experiment: Post-emergence test of MBI-005, lab (Example 13); format: in vivo
Experimental: as §3

[9] = test system: Sunflower (Helianthus anuus); experiment: Post-emergence test of MBI-005, lab (Example 13); format: in vivo
Experimental: as §3

[10] = test system: Yellow nutsedge (Cyperus esculentus); experiment: Post-emergence test of MBI-005, lab (Example 13); format: in vivo
Experimental: as §3

[11] = test system: Bindweed (Convolvulus arvensis); experiment: Post-emergence test of MBI-005, lab (Example 13); format: in vivo
Experimental: as §3

sedge = experiment: Greenhouse synergy test MBI-005 + commercial herbicides (Example 11); format: in vivo; details: 14 days
Experimental: (§4) The test species barnyard grass, ragweed, sedge, and broad-leaf mustard were used for the valuation of synergy between MBI-005 and the rice herbicides clomazone, penoxsulam, cyhalofop, fenoxaprop-p-ethyl, bispyribac-sodium, thiobencarb, and propanil.
(§5) There were 3 replicates per treatment which were sprayed with approximately ⅔ ml per replicate. The treatments were completely randomized and kept in a greenhouse at 25° C. The efficacy was rated at 7 and 14 days post treatment.

barnyard grass [12] = experiment: as above; format: in vivo; details: 14 days
Experimental: as §4, §5

broad-leaf mustard = experiment: as above; format: in vivo; details: 14 days
Experimental: as §4, §5

[13] = test system: annual broadleaves, sedges and grasses; experiment: Post-emergence spectrum of MBI-005, overall (Example 13); format: in vivo; details: unless surfactants are added
Experimental: as §3
In field testing, field soil containing weeds at the 1-5 leaf stage were treated with 38.2 L MBI-005/ha at a spray volume of 374 L/ha. Treatments, including water as the negative control and WeedBGon or Preen Broadleaf as the positive control, were replicated four times and applied twice at a four week interval. The positive control on Late watergrass, Ricefield Bulrush, Smallflower sedge and Arrowhead was an herbicide containing as active ingredient 2,4-D and an organosilicone surfactant was added to MBI-005. Treatments were assessed for % control and % ground cover.
Post-emergent control of perennials was generally limited except for Oxalis pes-caprae.

[14] = test system: Crabgrass (Digitaria sanguinalis); experiment: Pre-emergence test of MBI-005, lab & field (Example 12); format: in vivo; details: pre-emergent; note: ranges in brackets are in %
Experimental: as §1, §2

Bluegrass (Poa annua) = experiment: as above; format: in vivo; details: pre-emergent; note: ranges in brackets are in %
Experimental: as §1, §2

[15] = test system: Nightshade, Black—Solanum nigrum; experiment: Greenhouse weed control by S. acidiscabies extract (Example 4); format: in vivo; details: 0.5 mg/mL
Experimental: (§6) A strain of S. acidiscabies (ATCC-49003) is grown in oat bran broth for 5 days (25° C., 200 rpm). The whole cell broth with thaxtomin A is extracted using XAD resin. The dried crude extract was resuspended in 4% ethanol and 0.02% non-ionic surfactant at a concentration of 10 mg/mL, and the solutions with two different concentrations of thaxtomin A (0.5 and 1.0 mg/mL) are tested the following broadleaf weed species:
(§7) All plant species are tested in 4″×4″ plastic pots in three replicates. The untreated control plants are sprayed with the carrier solution (4% Ethanol, 0.02% glycosperse) and the positive control plants with Roundup at a rate corresponding to 1 fl. oz/acre. Treated plants are kept in a greenhouse under 12 h light/12 h dark conditions.

[16] = test system: Lambsquarter—Chenopodium album; experiment: as above; format: in vivo; details: Common lambsquarter; 0.5 mg/mL
Experimental: as §6, §7

CN1C(=O)[C@](O)(Cc2cccc(O)c2)N(C)C(=O)[C@@H]1Cc1c[nH]c2cccc([N+](=O)[O-])c12 [thaxtomin A]
Observed Average % Efficacy (E) (barnyard grass [1]; 12.5% MBI-005 (of label rate)): 10.0% | Observed Average % Efficacy (E) (barnyard grass [1]; 25% MBI-005 (of label rate)): 20.0% | pre-emergence spectrum of activity [2]: broad spectrum activity | activity as pre and post emergent, non-systemic herbicides [3]: marked activity | Rating at 1 mg/ml (Post-Emergence % control) [4]: ++++ (91-100) | Rating at 1 mg/ml (Post-Emergence % control) [5]: ++ (51-80) | Rating at 1 mg/ml (Post-Emergence % control) [6]: +++ (81-90) | Rating at 1 mg/ml (Post-Emergence % control) [7]: ++ (51-80) | Rating at 1 mg/ml (Post-Emergence % control) [8]: + (0-50) | Rating at 1 mg/ml (Post-Emergence % control) [9]: ++ (51-80) | Rating at 1 mg/ml (Post-Emergence % control) [10]: + (0-50) | Rating at 1 mg/ml (Post-Emergence % control) [11]: + (0-50) | % Control MBI-005 (sedge; MBI-005 0.01 mg/mL (cyhalofop line)): 20.0% | % Control MBI-005 (sedge; MBI-005 0.01 mg/mL (penoxsulam line)): 20.0% | % Control MBI-005 (sedge; MBI-005 0.02 mg/mL (fenoxaprop-p-ethyl line)): 70.8% | % Control MBI-005 (sedge; MBI-005 0.02 mg/mL (thiobencarb line)): 37.5% | % Control MBI-005 (barnyard grass [12]; MBI-005 0.125 mg/mL (bispyribac-sodium line)): 3.3% | % Control MBI-005 (barnyard grass [12]; MBI-005 0.125 mg/mL (penoxsulam line)): 17.5% | % Control MBI-005 (barnyard grass [12]; MBI-005 0.125 mg/mL (propanil line)): 10.0% | % Control MBI-005 (barnyard grass [12]; MBI-005 0.25 mg/mL (fenoxaprop-p-ethyl line)): 66.7% | % Control MBI-005 (barnyard grass [12]; MBI-005 0.25 mg/mL (thiobencarb line)): 41.7% | % Control MBI-005 (broad-leaf mustard; MBI-005 0.125 mg/mL (cyhalofop line)): 13.3% | % Control MBI-005 (broad-leaf mustard; MBI-005 0.125 mg/mL (fenoxaprop-p-ethyl line)): 45.8% | % Control MBI-005 (broad-leaf mustard; MBI-005 0.125 mg/mL (thiobencarb line)): 54.2% | % Control MBI-005 (broad-leaf mustard; MBI-005 0.25 mg/mL (bispyribac-sodium line)): 37.5% | % Control MBI-005 (broad-leaf mustard; MBI-005 0.25 mg/mL (propanil line)): 58.3% | post-emergent activity [13]: limited post-emergent activity | Rating at 0.1 mg/ml (Reduction of Germination) [14]: ++++ (95-100) | Rating at 0.1 mg/ml (Reduction of Germination) (Bluegrass (Poa annua)): ++++ (95-100) | stunting [15]: severe stunting | stunting [16]: severe stunting
